Results from ChEMBL document CHEMBL4665621, “The discovery of VU0652957 (VU2957, Valiglurax): SAR and DMPK challenges en route to an mGlu PAM development candidate” (Bioorg Med Chem Lett, 2019).

Experiments:
[1] = target: T1, Metabotropic glutamate receptor 4 (Homo sapiens, UniProt Q14833); experiment: Positive allosteric modulator activity at human mGlu4 receptor/Gqi5 in presence of EC20 glutamate by calcium mobilization assay; assay type: functional
[2] = target: T1, Metabotropic glutamate receptor 4; experiment: Positive allosteric modulator activity at human mGlu4 receptor/Gqi5 assessed as maximum activity at 30 uM by calcium mobilization assay relative to glutamic acid; assay type: functional; details: filed as positive allosteric modulator
[3] = Hepatic clearance in human; assay type: ADME
[4] = Protein binding in human plasma assessed as unbound fraction; assay type: ADME, cell-free
[5] = Protein binding in rat plasma assessed as unbound fraction; assay type: ADME, cell-free
[6] = Brain to plasma partition coefficient, Kp of the compound in Sprague-Dawley rat at 0.20 to 0.25 mg/kg, iv cassette dose measured at 0.25 hrs; assay type: ADME, organism-based; details: dose 0.20-0.25 mg/kg
Cytochrome P450 2C9 = Cytochrome P450 2C9 (Homo sapiens, UniProt P11712); experiment: Inhibition of CYP2C9 (unknown origin); assay type: ADME
Rattus norvegicus [7] = experiment: Reversal of haloperidol-induced catalepsy in rat assessed as reduction in catalepsy at 3 mg/kg, po dosed along with 1.5 mg/kg haloperidol relative to untreated control; assay type: functional; set-up: scale not given: the % may be the effect or the level left
Cytochrome P450 3A4 = Cytochrome P450 3A4 (Homo sapiens, UniProt P08684); experiment: Inhibition of CYP3A4 (unknown origin); assay type: ADME
Cytochrome P450 2D6 = Cytochrome P450 2D6 (Homo sapiens, UniProt P10635); experiment: Inhibition of CYP2D6 (unknown origin); assay type: ADME
Cytochrome P450 1A2 = target: T2, Cytochrome P450 1A2 (Homo sapiens, UniProt P05177); experiment: Inhibition of CYP1A2 (unknown origin); assay type: ADME
T2 sequence (P05177 whole entry): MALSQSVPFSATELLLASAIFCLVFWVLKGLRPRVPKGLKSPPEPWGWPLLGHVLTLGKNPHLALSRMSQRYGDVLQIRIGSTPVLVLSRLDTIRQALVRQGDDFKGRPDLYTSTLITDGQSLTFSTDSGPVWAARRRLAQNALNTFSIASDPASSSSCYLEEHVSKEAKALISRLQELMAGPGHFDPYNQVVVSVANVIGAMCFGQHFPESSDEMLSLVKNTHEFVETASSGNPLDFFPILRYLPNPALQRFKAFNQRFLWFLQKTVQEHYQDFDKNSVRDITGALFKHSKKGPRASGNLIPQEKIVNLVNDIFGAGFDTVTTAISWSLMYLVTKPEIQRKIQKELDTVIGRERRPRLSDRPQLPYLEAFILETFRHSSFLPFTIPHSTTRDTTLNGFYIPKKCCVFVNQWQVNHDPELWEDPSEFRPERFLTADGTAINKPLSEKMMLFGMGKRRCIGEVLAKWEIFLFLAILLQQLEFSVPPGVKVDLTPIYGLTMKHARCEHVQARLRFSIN

[8] = Fraction unbound in rat brain homogenate; assay type: ADME, tissue-based
[9] = Volume of distribution at steady state in rat; assay type: ADME; details: in vivo
[10] = Half life in rat; assay type: ADME; details: in vivo
Cytochrome P450 2C19 = Cytochrome P450 2C19 (Homo sapiens, UniProt P33261); experiment: Inhibition of CYP2C19 (unknown origin); assay type: ADME
[11] = target: Metabotropic glutamate receptor 4 (Rattus norvegicus) (UniProt P31423); experiment: Positive allosteric modulator activity at rat mGlu4 receptor/Gqi5 assessed as maximum activity by calcium mobilization assay relative to glutamic acid; assay type: functional; details: filed as positive allosteric modulator
Rattus norvegicus [12] = experiment: Reversal of haloperidol-induced catalepsy in po dosed rat assessed as minimum effective dose; assay type: functional; details: read-out: MED
[13] = target: Metabotropic glutamate receptor 4 (Rattus norvegicus, UniProt P31423); experiment: Positive allosteric modulator activity at rat mGlu4 receptor/Gqi5 in presence of EC20 glutamate by calcium mobilization assay; assay type: functional
Chain of Metabotropic glutamate receptor 4 (Rattus norvegicus, UniProt P31423) (P31423 whole entry): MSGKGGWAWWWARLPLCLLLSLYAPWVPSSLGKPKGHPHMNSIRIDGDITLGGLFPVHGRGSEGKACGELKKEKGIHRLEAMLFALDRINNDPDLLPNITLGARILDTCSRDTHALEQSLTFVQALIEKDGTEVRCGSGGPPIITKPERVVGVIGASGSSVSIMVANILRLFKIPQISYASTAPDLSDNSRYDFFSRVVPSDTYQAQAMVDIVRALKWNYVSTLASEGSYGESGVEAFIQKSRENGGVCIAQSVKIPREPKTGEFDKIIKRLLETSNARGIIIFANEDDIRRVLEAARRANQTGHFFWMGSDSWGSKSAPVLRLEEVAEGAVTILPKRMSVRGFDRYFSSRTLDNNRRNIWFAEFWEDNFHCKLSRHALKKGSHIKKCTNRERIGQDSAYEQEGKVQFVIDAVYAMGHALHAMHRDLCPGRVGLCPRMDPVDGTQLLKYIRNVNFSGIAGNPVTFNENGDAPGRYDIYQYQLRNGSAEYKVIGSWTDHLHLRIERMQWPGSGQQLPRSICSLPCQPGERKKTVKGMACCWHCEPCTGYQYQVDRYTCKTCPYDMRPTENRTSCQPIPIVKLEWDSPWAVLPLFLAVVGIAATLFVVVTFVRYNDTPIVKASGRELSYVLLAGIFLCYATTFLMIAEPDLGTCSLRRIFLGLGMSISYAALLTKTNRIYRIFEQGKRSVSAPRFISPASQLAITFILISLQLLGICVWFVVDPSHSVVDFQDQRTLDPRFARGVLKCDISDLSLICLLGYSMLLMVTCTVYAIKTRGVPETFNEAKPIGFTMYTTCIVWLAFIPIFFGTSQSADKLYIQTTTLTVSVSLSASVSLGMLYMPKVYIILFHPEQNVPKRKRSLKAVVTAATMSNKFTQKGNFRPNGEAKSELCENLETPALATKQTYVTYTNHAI

T1 sequence (Q14833 whole entry): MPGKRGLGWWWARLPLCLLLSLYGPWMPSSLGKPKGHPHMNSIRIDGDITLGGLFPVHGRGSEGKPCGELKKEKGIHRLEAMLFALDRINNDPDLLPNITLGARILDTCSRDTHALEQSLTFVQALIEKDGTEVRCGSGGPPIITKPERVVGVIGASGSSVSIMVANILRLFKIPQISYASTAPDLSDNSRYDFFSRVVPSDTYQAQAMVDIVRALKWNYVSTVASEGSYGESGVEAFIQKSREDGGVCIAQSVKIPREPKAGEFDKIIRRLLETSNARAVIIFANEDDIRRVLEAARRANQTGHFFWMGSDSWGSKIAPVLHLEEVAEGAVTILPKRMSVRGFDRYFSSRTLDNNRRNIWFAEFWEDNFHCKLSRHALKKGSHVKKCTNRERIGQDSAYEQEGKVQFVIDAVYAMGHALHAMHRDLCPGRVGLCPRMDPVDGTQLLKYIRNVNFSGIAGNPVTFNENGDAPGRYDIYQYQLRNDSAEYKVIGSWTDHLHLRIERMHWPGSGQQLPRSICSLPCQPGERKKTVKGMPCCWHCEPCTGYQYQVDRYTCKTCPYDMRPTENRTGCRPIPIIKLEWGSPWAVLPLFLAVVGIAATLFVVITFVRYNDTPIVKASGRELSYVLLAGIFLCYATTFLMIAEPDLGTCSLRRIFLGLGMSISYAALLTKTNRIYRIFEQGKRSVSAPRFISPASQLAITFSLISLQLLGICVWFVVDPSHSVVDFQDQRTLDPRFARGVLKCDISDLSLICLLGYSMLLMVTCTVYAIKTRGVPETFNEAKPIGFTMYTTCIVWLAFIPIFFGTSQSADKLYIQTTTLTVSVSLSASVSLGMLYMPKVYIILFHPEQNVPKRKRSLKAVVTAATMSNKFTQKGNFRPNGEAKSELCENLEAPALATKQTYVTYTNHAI
Chain of Cytochrome P450 2D6 (P10635 whole entry): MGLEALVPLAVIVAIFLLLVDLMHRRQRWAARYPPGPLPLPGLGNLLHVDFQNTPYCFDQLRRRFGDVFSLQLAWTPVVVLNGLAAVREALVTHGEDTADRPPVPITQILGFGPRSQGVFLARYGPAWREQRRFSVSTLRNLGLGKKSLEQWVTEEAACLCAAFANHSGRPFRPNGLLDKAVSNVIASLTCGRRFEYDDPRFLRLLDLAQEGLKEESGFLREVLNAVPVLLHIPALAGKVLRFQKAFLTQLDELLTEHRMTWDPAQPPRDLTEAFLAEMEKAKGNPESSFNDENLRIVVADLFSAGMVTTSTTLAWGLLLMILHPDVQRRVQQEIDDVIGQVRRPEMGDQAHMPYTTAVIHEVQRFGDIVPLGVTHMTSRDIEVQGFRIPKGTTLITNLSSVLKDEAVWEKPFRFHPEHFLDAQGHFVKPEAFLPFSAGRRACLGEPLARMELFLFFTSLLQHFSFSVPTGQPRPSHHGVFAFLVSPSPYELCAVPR
Chain of Cytochrome P450 2C9 (P11712 whole entry): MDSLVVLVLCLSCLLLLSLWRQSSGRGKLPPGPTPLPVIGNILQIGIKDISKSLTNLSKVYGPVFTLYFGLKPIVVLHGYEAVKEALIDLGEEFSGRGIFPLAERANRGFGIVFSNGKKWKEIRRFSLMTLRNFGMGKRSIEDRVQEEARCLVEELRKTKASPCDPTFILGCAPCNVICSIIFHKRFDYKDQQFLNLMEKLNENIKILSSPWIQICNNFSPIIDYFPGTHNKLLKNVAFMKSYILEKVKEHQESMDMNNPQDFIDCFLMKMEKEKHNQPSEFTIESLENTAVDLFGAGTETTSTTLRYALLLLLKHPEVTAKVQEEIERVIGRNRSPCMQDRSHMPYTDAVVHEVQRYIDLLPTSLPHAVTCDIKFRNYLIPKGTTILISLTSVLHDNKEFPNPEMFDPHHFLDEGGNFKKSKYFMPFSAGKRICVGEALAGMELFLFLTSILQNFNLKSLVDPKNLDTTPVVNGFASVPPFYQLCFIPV
Chain of Cytochrome P450 3A4 (P08684 whole entry): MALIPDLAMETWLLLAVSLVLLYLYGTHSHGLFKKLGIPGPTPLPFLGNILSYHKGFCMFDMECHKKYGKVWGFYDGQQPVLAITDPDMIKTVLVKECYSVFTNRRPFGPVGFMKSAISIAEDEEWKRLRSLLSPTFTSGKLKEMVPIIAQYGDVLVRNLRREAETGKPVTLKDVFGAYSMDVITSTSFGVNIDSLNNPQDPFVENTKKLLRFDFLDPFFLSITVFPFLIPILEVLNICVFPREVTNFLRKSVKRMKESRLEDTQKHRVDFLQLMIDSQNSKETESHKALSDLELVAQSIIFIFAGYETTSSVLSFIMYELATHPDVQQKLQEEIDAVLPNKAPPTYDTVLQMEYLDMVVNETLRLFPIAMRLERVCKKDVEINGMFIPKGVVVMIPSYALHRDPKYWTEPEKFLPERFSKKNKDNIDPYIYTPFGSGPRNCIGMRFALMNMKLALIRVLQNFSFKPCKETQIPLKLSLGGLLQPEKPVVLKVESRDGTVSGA
Chain of Cytochrome P450 2C19 (P33261 whole entry): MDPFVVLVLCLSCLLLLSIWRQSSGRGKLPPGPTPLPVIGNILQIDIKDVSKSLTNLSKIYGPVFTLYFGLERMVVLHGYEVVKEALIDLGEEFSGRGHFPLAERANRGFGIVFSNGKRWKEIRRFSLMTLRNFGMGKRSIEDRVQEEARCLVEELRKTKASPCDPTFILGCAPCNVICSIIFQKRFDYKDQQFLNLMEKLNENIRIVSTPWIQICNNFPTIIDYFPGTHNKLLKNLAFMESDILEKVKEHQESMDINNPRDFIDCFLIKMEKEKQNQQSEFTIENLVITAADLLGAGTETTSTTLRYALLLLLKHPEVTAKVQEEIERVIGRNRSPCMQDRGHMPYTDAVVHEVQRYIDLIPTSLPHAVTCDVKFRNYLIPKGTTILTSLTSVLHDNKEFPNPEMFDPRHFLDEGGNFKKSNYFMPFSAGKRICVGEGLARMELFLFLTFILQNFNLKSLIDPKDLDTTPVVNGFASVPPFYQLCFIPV
Chain of Metabotropic glutamate receptor 4 (Rattus norvegicus) (P31423 whole entry): as the sequence (P31423 whole entry) above

SMILES	EC50 [1]	Activity [2]	further results
CN1CCN(c2nccc3cc(Nc4n[nH]c5cccnc45)ccc23)CC1	1290 nM	72%	–
Cn1nccc1-c1nccc2cc(Nc3n[nH]c4cccnc34)ccc12	45 nM	78%	CLH [3]: 11.5 mL/min/kg; Fu [4]: 0.096 fraction; Fu [5]: 0.088 fraction; Kp at 0.25 h [6]: 1.6
FC(F)(F)C1CCCCN1c1nccc2cc(Nc3n[nH]c4cccnc34)ccc12 (stereo not given)	306 nM	57%	–
FC(F)c1nccc2cc(Nc3n[nH]c4cccnc34)ccc12	8 nM	67%	IC50 (Cytochrome P450 2C9): 30000 nM; Activity (Rattus norvegicus [7]): 45%; Fu [4]: 0.03 fraction; IC50 (Cytochrome P450 3A4): > 30000 nM; IC50 (Cytochrome P450 2D6): > 30000 nM; Fu [5]: 0.032 fraction; IC50 (Cytochrome P450 1A2): 300 nM; Kp at 0.25 h [6]: 2.2
Cc1ccn(-c2nccc3cc(Nc4n[nH]c5cccnc45)ccc23)n1	237 nM	84%	–
c1cnc2c(Nc3ccc4cnccc4c3)n[nH]c2c1	76 nM	114%	Fu [8]: 0.029%; IC50 (Cytochrome P450 2C9): 1350 nM; Vdss [9]: 4.88 L/kg; t1/2 [10]: 10.2 h; Fu [4]: 0.092 fraction; IC50 (Cytochrome P450 3A4): 440 nM; IC50 (Cytochrome P450 2D6): 3980 nM; fraction unbound [5]: 0.046; IC50 (Cytochrome P450 1A2): 150 nM
Cn1nc(C(F)(F)F)cc1-c1nccc2cc(Nc3n[nH]c4cccnc34)ccc12	132 nM	84%	–
O=c1c2ccc(Nc3n[nH]c4cccnc34)cc2ccn1C1CCCC1	1730 nM	22%	–
FC(F)(F)c1nccc2cc(Nc3n[nH]c4cccnc34)ccc12	18 nM	77%	half-life [10]: < 1 h; Activity (Rattus norvegicus [7]): 24%; Kp at 0.25 h [6]: 4.3
c1cnc2c(Nc3ccc4c(N5CCCCC5)nccc4c3)n[nH]c2c1	215 nM	74%	–
c1ccc(CNc2nccc3cc(Nc4n[nH]c5cccnc45)ccc23)cc1	1360 nM	58%	–
c1cnc2c(Nc3ccc4c(N5CCCC5)nccc4c3)n[nH]c2c1	1690 nM	54%	–
CC(C)Cn1ccc2cc(Nc3n[nH]c4cccnc34)ccc2c1=O	685 nM	24%	–
c1cnc2cc(Nc3n[nH]c4cccnc34)ccc2c1	> 10000 nM	–	–
CC(c1nccc2cc(Nc3n[nH]c4cccnc34)ccc12)C(F)(F)F (stereo not given)	36 nM	100%	Kp at 0.25 h [6]: 2.2
c1cnc2c(Nc3ccc4nccnc4c3)n[nH]c2c1	> 10000 nM	–	–
Cc1cc(C)n(-c2nccc3cc(Nc4n[nH]c5cccnc45)ccc23)n1	726 nM	70%	–

SMILES	EC50 [1]	Activity [2]	further results
CCc1nccc2cc(Nc3n[nH]c4cccnc34)ccc12	45 nM	64%	IC50 (Cytochrome P450 1A2): < 1000 nM
c1cnc2c(Nc3ccc4c(-n5cccn5)nccc4c3)n[nH]c2c1	63 nM	85%	CLH [3]: 35.7 mL/min/kg; Fu [8]: 0.029%; IC50 (Cytochrome P450 2C9): 7300 nM; Fu [4]: 0.09 fraction; IC50 (Cytochrome P450 3A4): 13000 nM; IC50 (Cytochrome P450 2D6): 7200 nM; Fu [5]: 0.046 fraction; IC50 (Cytochrome P450 1A2): 1500 nM; Kp at 0.25 h [6]: 1.37
c1cnc2c(Nc3ccc4ccncc4c3)n[nH]c2c1	> 10000 nM	–	–
c1cnc2c(Nc3ccc4c(NC5CCC5)nccc4c3)n[nH]c2c1	869 nM	71%	–
FC(F)(F)c1nccc2cc(Nc3n[nH]c4ncccc34)ccc12	65 nM	93%	IC50 (Cytochrome P450 2C19): 12500 nM; Emax [11]: 123%; minimal effective dose (Rattus norvegicus [12]): 1 mg/kg; Activity (Rattus norvegicus [7]): 50%; EC50 [13]: 197 nM; Kp at 0.25 h [6]: 1.5
FC1(F)CCN(c2nccc3cc(Nc4n[nH]c5cccnc45)ccc23)C1	249 nM	75%	–
FC(F)(F)c1nccc2cc(Nc3n[nH]c4nccnc34)ccc12	51 nM	83%	half-life [10]: < 1 h; Activity (Rattus norvegicus [7]): 24%
CCN(CC)c1nccc2cc(Nc3n[nH]c4cccnc34)ccc12	164 nM	95%	–
O=c1c2ccc(Nc3n[nH]c4cccnc34)cc2ccn1CC1CCC1	653 nM	31%	–
COCCNc1nccc2cc(Nc3n[nH]c4cccnc34)ccc12	121 nM	89%	–
c1cnc2c(Nc3ccc4cnccc4n3)n[nH]c2c1	> 10000 nM	–	–
c1ccc2cc(Nc3n[nH]c4cccnc34)ccc2c1	403 nM	79%	–
c1cnc2c(Nc3ccc4c(C5CC5)nccc4c3)n[nH]c2c1	71 nM	86%	IC50 (Cytochrome P450 1A2): < 1000 nM
Cn1ccc2cc(Nc3n[nH]c4cccnc34)ccc2c1=O	> 10000 nM	30%	–
c1cnc2ccc(Nc3n[nH]c4cccnc34)cc2c1	732 nM	42%	–
c1cnc2c(Nc3ccc4ncncc4c3)n[nH]c2c1	> 10000 nM	–	–
O=c1[nH]ccc2cc(Nc3n[nH]c4cccnc34)ccc12	264 nM	77%	IC50 (Cytochrome P450 2C9): > 30000 nM; IC50 (Cytochrome P450 3A4): > 30000 nM; IC50 (Cytochrome P450 1A2): 3300 nM
